Among the data in patent US6610714B2, “Non-nucleoside reverse transcriptase inhibitors” (Medivir AB, priority 2001, dated 2003) are EC50 values, retold here.

The subject of the test is HIV-1IIIB (wild type). Description: XTT assay in MT-4 cells infected with wild type HIV-1IIIB. Format: cell-based. To be noted: Human immunodeficiency virus 1, MT4, read-out: ED50. The method, then: Compounds of the invention are assayed for HIV activity, for example using multiple determinations with XTT in MT-4 cells (Weislow et al, J Nat Cancer Inst 1989, vol 81 no 8, 577 et seq), preferably including determinations in the presence of 40-50% human serum to indicate the contribution of protein binding. In short the XTT assay uses human T cell line MT4 cells grown in RPMI 1640 medium supplemented with 10% fetal calf serum (or 40-50% human serum as appropriate), penicillin and streptomycin seeded into 96 well microplates (2·10^4 cells/well) infected with 10-20 TCID50 per well of HIV-1IIIB (wild type) or mutant virus, such as those bearing RT IIe 100, Cys 181 or Asn 103 mutations. Serially diluted test compounds are added to respective wells and the culture incubated at 37° C. in a CO2 enriched atmosphere and the viability of cells is determined at day five or six with XTT vital dye. Results are typically presented as ED50 μM.

Each structure is given as a SMILES string. pEC50: −log10 of the molar value.

`O=C(Nc1ccc(Cl)cn1)N[C@@H]1[C@@H]2Cc3c(F)ccc(F)c3[C@@H]21` (racemic) [Example 19, (±)-cis-1-(5-chloro-2-pyridinyl)-3-(2,5-difluoro-1,1a,6,6a-tetrahydro-cyclopropa[a]inden-1-yl)-urea]: the pEC50 was 8.00. `C#Cc1ccc2c(c1)CC[C@H]1[C@@H](NC(=O)Nc3ccc(Br)cn3)[C@@H]21` [Example 9, +/−cis-N-(5-bromo-2-pyridinyl)-N-(5-ethynyl-1a,2,3,7b-tetrahydro-1H-cyclopropa[a]naphthalen-1-yl)urea]: the pEC50 was 7.36. `N#Cc1ccc(NC(=O)N[C@@H]2[C@@H]3Cc4cc(Br)ccc4[C@@H]32)nc1` (racemic) [Example 17, (±)-cis-1-(5-cyano-2-pyridinyl)-3-(4-bromo-1,1a,6,6a-tetrahydro-cyclopropa[a]inden-1-yl)-urea]: the pEC50 was 7.38.

For the molecule `N#Cc1ccc(NC(=O)N[C@@H]2[C@@H]3Cc4c(F)ccc(F)c4[C@@H]32)nc1` (racemic) [Example 20, (±)-cis-1-(5-cyano-2-pyridinyl)-3-(2,5-difluoro-1,1a,6,6a-tetrahydro-cyclopropa[a]inden-1-yl)-urea], the pEC50 was 7.85. The same measure for `C#Cc1ccc2c(c1)CC[C@H]1[C@@H](NC(=O)Nc3ccc(C#N)cn3)[C@@H]21` [Example 8, +/−cis-N-(5-cyano-2-pyridinyl)-N-(5-ethynyl-1a,2,3,7b-tetrahydro-1H-cyclopropa[a]naphthalen-1-yl)urea]: 7.49; for `COc1ccc2c(c1)CC[C@H]1[C@@H](NC(=O)Nc3ccc(C#N)cn3)[C@@H]21` [Example 5, +/−cis-N-(5-cyano-2-pyridinyl)-N-(5-methoxy-1a,2,3,7b-tetrahydro-1H-cyclopropa[a]naphthalen-1-yl)urea]: 8.05.

Turning to `COc1ccc2c(c1)[C@H]1[C@@H](CC2)[C@H]1NC(=O)Nc1ccc(C#N)cn1` [Example 6, +/−cis-N-(5-cyano-2-pyridinyl)-N-(6-methoxy-1a,2,3,7b-tetrahydro-1H cyclopropa[a]naphthalen-1-yl)urea], the pEC50 was 7.44.
